Series [1] concerns LoVo colorectal adenocarcinoma xenografts. The series can be described thus: In vivo anticancer activity, oxaliplatin-sensitive colorectal xenograft. As to conditions: LoVo xenograft mice, day 14 to day 30; FIG. 5 panel A. Also noted: species or system BALB/c nu/nu mice. Here is the method:
(§1) LoVo and LoVo-OXP tumor xenografts were established in 6-week-old BALB/c nu/nu mice by injecting 1×10^7 tumor cells subcutaneously (100 μL in serum free medium) on the left dorsal flank. After 24 h from tumor implantation, mice were randomly divided into five groups (6 animals per group, 8 controls). Chemotherapy was delayed until the tumor became palpable (day 14). From day 14, 1 was dosed daily at 3 mg/kg ip whereas OXP was dosed daily at 2 mg/kg ip. Measurements of body weights and tumor volumes were recorded every 2 days until the experimental endpoint. The long axis (L) and the short axis (S) were measured with caliper, and the tumor volume (V) was calculated using the following equation: V=S×S×L/2. At day 30, animals were sacrificed, and the inhibition of tumor growth was determined by comparing the volume of the control group and the treatment group expressed as % referred to the control animals.
(§2) All the values are the means±S.D. of not less than three measurements. Multiple comparisons were made by Tukey-Kramer test (**p<0.01; *p<0.05).

Series [2] relates to LoVo-OXP colorectal adenocarcinoma xenografts. Description: In vivo anticancer activity, oxaliplatin-resistant colorectal xenograft. Particulars: LoVo-OXP xenograft mice, day 14 to day 30; FIG. 5 panel B. Also noted: species or system BALB/c nu/nu mice. Here is the method:
as §1, §2

Series [3] deals with 2008/C13*, LoVo/LoVo-OXP, LoVo MDR. Description: MTT cytotoxicity, comparison over the Table 2 cell lines. The series is classed as cell-based, human. As to conditions: 2008 ovarian and LoVo colon sensitive cells. Here is the method: (§3) After 24 h, the medium was removed and replaced with a fresh one containing the compound to be studied, at the appropriate concentration, dissolved in 0.9% sodium chloride solution just before use. Triplicate cultures were established for each treatment. After 72 h, each well was treated with […] of a 5 mg mL^−1 MTT saline solution and, after 5 h of incubation, 100 μL of a sodium dodecylsulfate (SDS) solution in 0.01 M HCl were added. After an overnight incubation, the inhibition of cell growth induced by the tested complexes was determined by measuring the absorbance of each well at 570 nm using a BioRad 680 microplate reader. Mean absorbance for each drug dose was expressed as percentage of the control and plotted vs. drug concentration. Dose-response curves were fitted and IC50 values were calculated with four parameter logistic model (4PL).
A LoVo cell line retaining a multidrug resistance phenotype was also considered (LoVo MDR). Cross-resistance profiles were evaluated by means of the resistance factor (RF), which is defined as the ratio between the IC50 value for the resistant cells and that arising from the sensitive cells (Table 2).

The format of series [4] is physicochemical. An excerpt: Lipophilicity is usually expressed in terms of n-octanol/water partition coefficient, log Po/w, and correlates with cellular uptake by passive diffusion (Liu, X., et al., Pharm. Res. 2011, 28, 962-977).
Since RP-HPLC retention is due to partitioning between mobile (polar) and stationary (apolar) phases, there is a good correlation between capacity factor k′ (k′=(tR−t0)/t0, where t0 is the retention time for an unretained compound and tR is the retention time of the analyte) and partition coefficient (log Po/w=a+b log k′). Thus the HPLC procedure represents a good alternative to the time- and material-consuming shake-flask method. […] This implies that there are specific import (CTR1, OCT, etc.) or export (ATP7B) mechanisms which operate selectively on the different types of complexes.

Series [5] deals with panel of human tumor cell lines (A431, MCF-7, A375, HCT-15, SW480, CaCo-2, DLD-1). The series can be described thus: MTT cytotoxicity, comparison over the Table 1 panel. As to conditions: average over seven cell lines of Table 1. The format is cell-based. Here is the method:
as §3
The cytotoxicity was evaluated by means of the MTT test for 72 h treatment with increasing concentrations of the tested compounds.

Series [6] concerns Lewis lung carcinoma (LLC). The series can be described thus: In vivo anticancer activity toward Lewis lung carcinoma. Further details: species or system C57BL mice. As to conditions: LLC-bearing mice. Here is the method:
All studies involving animal testing were carried out in accordance with the ethical guidelines for animal research adopted by the University of Padua, acknowledging the Italian regulation and the European Directive 86/609/EEC as to animal welfare and protection and the related codes of practice. The mice were purchased from Charles River, Italy, and housed in steel cages under controlled environmental conditions (constant temperature, humidity, and 12 h dark/light cycle) and alimented with commercial standard feed and tap water ad libitum. Animals were observed daily, and body weight and food intake recorded. The Lewis lung carcinoma (LLC) cell line was purchased from ECACC, UK. The LLC cell line was maintained in D-MEM (Euroclone) supplemented with 10% heat-inactivated FBS (Euroclone), 10 mM L-glutamine, 100 U mL^−1 penicillin, and 100 μg mL^−1 streptomycin in a 5% CO2 air incubator at 37° C.
The Lewis lung carcinoma (LLC) was implanted i.m. as a 2×10^6 cell inoculum into the right hind leg of 8-week old male and female C57BL mice (24±3 g body weight). […] At day 15, animals were sacrificed, the legs were amputated at the proximal end of the femur, and the inhibition of tumor growth was determined according to the difference in weight of the tumor-bearing leg and the healthy leg of the animals expressed as % referred to the control animals. Body weight was measured every two days and was taken as a parameter for systemic toxicity.
All the values are the means±S.D. of not less than three measurements. Multiple comparisons were made by Tukey-Kramer test (**p<0.01; *p or °p<0.05).
The in vivo antitumor activity of compound 1 was evaluated in a model of solid tumor, the syngeneic murine Lewis lung carcinoma (LLC). […] For the assessment of the adverse side effects, changes in body weights of tumor-bearing mice were monitored daily (FIG. 3).

The nature of another series: Aqueous solubility. As to conditions: compared to compound 2. The format is physicochemical.
The subject of series [7] is human ovarian A2780 cancer cell line. Particulars: Kasparkova 2010; cited from earlier work.

In the case of `[Cl][Pt]1([Cl])[NH]C2CCC(CC2)[NH]1` [Compound 1, [SP-4-2-(cis)]-dichloro(1,4-cyclohexanediamine-N,N′)platinum], the body weight loss entry in series [1] and in series [2] was “roughly equivalent to that obtained by using the parent drug oxaliplatin” in each case. In series [3], the “cytotoxic activity towards sensitive lines compared with reference drugs” value is “as good as oxaliplatin and better than cisplatin”. In series [4], the “log Po/w” value is given as −1.57±0.10. The “average cytotoxic activity compared with reference drugs” value in series [5] was “slightly more effective than oxaliplatin”. For the same molecule, the “body weight loss compared with cisplatin” value in series [6] (1.5 mg kg^−1 each, FIG. 3) is recorded as “about half that caused by cisplatin”. In series [6] (daily i.p.), the “tolerability compared with cisplatin” value was “better tolerated than cisplatin”. The “adverse side effects (body weight loss) compared with cisplatin” value in series [6] (compound 1 at 3 mg kg^−1, FIG. 3) is listed as “smaller adverse side effects than cisplatin”. Also, the aqueous solubility entry in the series “Aqueous solubility” is “enhanced aqueous solubility compared to compound 2”. Further, in series [7], the “cytotoxicity, fold greater than cisplatin” value is 3.4-5.4.

Source of the values: patent US9220705B2, “Method of treating colorectal cancer” (priority 2013, dated 2015).
